This test concerns SARS-CoV-2 Spike protein pseudotyped lentiviral particles. In words: microbe, parasite or virus in culture. The format is cell-based. Particulars: Severe acute respiratory syndrome coronavirus 2, HEK293, read-out: half-maximal effective concentration (EC50), neutralization of SARS-CoV2 infection.

EC50 data for one molecule are collected here from US12569467B2, “Small molecules that treat or prevent viral infections” (priority 2022, dated 2026).

pEC50: −log10 of the molar value.

In the case of `O=C1Nc2ccccc2/C1=C\c1ccc(-c2cc(C(F)(F)F)cc(C(F)(F)F)c2)o1` [CD04872SC, 3-({5-[3,5-di(trifluoromethyl)phenyl]-2-furyl}methylidene)indolin-2-one], the pEC50 was 3.61.
